Source: patent US20250092044A1, “Kinase Inhibitors” (Incyte Corporation, priority 2023, published 2025)

Legend:
[1] = target: TRKA (Homo sapiens (Human), UniProt P04629); assay: TRKA Enzymatic Assay; assay type: biochemical; settings: 1 mM ATP
Procedure, shortened: (§1)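 Reaction contained 0.58 nM TRKA, 1 mM ATP, 500 nM biotinylated TK substrate and 62.5 nM SEB reagent in HEPES 50 mM pH 7.0 with 10 mM MgCl2, 1 mM DTT and 0.1 mM orthovanadate, 0.5% DMSO, ATP-initiated. After 60 min at room temperature, the TR-FRET 665/620 nm ratio was read. IC50 was fitted from percent control activity versus log concentration, with DMSO and no-ATP wells as controls.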

[2] = tested on: TRKA; assay: TRKA Enzymatic Assay; assay type: biochemical
Procedure, shortened: as §1

[3] = In Vivo Pharmacokinetics (rat); parameters: species or system Sprague Dawley rats; settings: male, Sprague Dawley, plasma, PO 3.0 mg/kg
Procedure: Test compounds were administered to male Sprague Dawley rats or male and female Cynomolgus monkeys intravenously or via oral gavage. For intravenous (IV) dosing, test compounds were dosed at 1 mg/kg using a formulation of 10% dimethylacetamide (DMAC), 10% propylene glycol (PG) in acidified saline via IV bolus for rat or 10 min IV infusion for monkey. For oral (PO) dosing, test compounds were dosed at 3.0 mg/kg using 5% DMAC in 0.5% methylcellulose in citrate buffer (PH˜2.5). Blood samples were collected at predose and various time points up to 24 hours postdose. All blood samples were collected using EDTA as the anticoagulant and centrifuged to obtain plasma samples. The plasma concentrations of test compounds were determined by LC-MS/MS methods. The measured plasma concentrations were used to calculate PK parameters by standard noncompartmental methods using Phoenix® WinNonlin software program (version 8.0, Pharsight Corporation) or similar software. In rats and monkeys, cassette dosing of test compounds were conducted to obtain preliminary PK parameters. In vivo pharmacokinetic experiments with male beagle dogs may be performed under the conditions described above.

[4] = target: CYP3A4 (Homo sapiens (Human), UniProt P08684); assay: Time Dependent Inhibition (TDI) of CYP; assay type: in vitro ADME; settings: for TDI 3A4: Kobs, 30 min pre-incubation with NADPH; for TDI 3A4 / Kobs: human liver microsomes, 10 μM; for CYP function remaining / Kobs: time dependent inhibition of CYPs; for CYP function remaining: after pre-incubation with NADPH
CYP3A4, sequence (P08684 whole entry): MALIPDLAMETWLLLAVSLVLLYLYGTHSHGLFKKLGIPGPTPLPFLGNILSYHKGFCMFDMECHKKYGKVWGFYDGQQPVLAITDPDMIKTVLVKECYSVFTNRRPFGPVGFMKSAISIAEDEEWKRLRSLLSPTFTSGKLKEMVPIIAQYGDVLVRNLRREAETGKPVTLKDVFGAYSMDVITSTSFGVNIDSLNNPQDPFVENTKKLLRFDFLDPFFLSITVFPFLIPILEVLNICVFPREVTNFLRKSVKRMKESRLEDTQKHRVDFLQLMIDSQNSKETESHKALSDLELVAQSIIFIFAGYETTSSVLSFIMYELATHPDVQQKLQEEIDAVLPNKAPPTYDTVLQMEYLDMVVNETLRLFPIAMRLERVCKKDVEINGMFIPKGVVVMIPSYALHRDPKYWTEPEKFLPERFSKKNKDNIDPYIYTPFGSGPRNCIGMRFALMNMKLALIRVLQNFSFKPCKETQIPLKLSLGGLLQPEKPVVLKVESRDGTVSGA
From the text: Inhibition of P450 enzymes can be classified as either reversible or time-dependent inhibition (TDI). This in vitro assay is designed to detect an increase in CYP inhibition as a result of biotransformation and/or bioactivation (TDI). Potential mechanisms for this include the formation of a tight-binding, quasi-irreversible inhibitory metabolite complex or the inactivation of P450 enzymes by covalent adduct formation of metabolites. While this experiment employs a 10-fold dilution to diminish metabolite concentrations and therefore effects of reversible inhibition, it is possible (but not common) that a metabolite that is an extremely potent CYP inhibitor could result in a positive result.
The results are from a cocktail of CYP specific probe substrates at 4 times their Km concentrations for CYP2C9 (diclofenac), CYP2C19 (S-mephenytoin), CYP2D6 (bufuralol) and CYP3A4 (midazolam) using human liver microsomes (HLM). The HLMs were pre-incubated with test compound(s) at a concentration 10 μM for 30 min in the presence (+N) or absence (−N) of a NADPH regenerating system, diluted 10-fold, and incubated for 8 min in the presence of the substrate cocktail with the addition of a fresh aliquot of NADPH regenerating system. A calibration curve of metabolite standards was used to quantitatively measure the enzyme activity using LC-MS/MS. In addition, incubations with known time dependent inhibitors, tienilic aicd (CYP2C9), ticlopidine (CYP2C19), paroxetine (CYP2D6), and troleandomycin (CYP3A4), used as positive controls were pre-incubated 30 min with or without a NADPH regenerating system.
The percentage of control CYP2C9, CYP2C19, CYP2D6, and CYP3A4 activity remaining following pre-incubation of the compounds with NADPH is corrected for the corresponding control vehicle activity and then calculated based on 0 minutes as 100%. A linear regression plot of the natural log of % activity remaining versus time for each isozyme is used to calculate the slope. The −slope is equal to the rate of enzyme loss, or the Kobs. […] Examples 29-30 have Kobs from 0.005-0.02 indicating a medium to low potential for time dependent inhibition of CYPs corresponding to 70-90% CYP function remaining.

[5] = target: pseudo-kinase domain (JH2) of human V617F mutant JAK2 (Homo sapiens (Human), UniProt O60674, F794H/V617F/W659A/W777A); assay: JAK2 LanthaScreen JH2-V617F Binding Assay; settings: read-out: JH2 V617F Bind IC50
pseudo-kinase domain (JH2) of human V617F mutant JAK2, sequence (O60674 536-812 V617F/W659A/W777A/F794H): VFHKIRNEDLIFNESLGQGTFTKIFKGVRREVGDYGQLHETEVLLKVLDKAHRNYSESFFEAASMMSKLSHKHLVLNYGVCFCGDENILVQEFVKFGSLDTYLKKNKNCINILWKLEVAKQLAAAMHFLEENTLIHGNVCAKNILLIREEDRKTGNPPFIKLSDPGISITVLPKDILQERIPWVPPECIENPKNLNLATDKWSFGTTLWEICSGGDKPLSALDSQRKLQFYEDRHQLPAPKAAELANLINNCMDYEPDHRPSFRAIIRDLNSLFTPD
Procedure, shortened: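 Biotinylated His-Avi JAK2 JH2 (aa 536-812, V617F plus W659A/W777A/F794H; 0.26 nM) incubated 1 h at 25 °C with compound, 50 nM fluorescent JH2 tracer and 0.25 nM streptavidin-Tb in Tris pH 7.5 buffer. TR-FRET tracer displacement read; nonspecific binding with 2 mM ATP; IC50 from four-parameter fit.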

TRKA (Homo sapiens (Human), UniProt P04629), sequence (P04629 33-796, species assumed): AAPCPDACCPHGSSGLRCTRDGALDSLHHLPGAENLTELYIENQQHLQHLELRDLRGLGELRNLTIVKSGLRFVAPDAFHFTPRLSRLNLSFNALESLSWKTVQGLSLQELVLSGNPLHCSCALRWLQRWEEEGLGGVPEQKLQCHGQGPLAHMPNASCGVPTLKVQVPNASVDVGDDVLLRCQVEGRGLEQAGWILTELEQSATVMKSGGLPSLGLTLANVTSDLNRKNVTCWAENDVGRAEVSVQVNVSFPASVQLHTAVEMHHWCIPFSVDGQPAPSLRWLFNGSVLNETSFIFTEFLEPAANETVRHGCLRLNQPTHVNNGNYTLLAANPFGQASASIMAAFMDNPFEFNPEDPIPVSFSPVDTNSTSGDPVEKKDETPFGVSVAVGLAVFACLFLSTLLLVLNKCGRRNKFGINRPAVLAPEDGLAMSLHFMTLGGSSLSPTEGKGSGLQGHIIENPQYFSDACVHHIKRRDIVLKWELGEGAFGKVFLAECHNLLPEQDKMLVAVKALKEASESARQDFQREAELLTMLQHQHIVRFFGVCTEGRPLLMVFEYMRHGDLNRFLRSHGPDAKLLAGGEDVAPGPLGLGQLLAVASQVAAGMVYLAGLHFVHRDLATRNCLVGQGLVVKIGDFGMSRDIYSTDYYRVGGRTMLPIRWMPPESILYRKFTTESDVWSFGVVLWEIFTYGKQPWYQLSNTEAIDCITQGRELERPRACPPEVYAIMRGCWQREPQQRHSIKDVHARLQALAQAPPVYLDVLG

Structure (SMILES)	IC50 [1] [µM]	Selectivity TRKA/JH2 V617F [2]	AUC [3] [nM·h]	TDI 3A4 [4]	IC50 [5] [µM]	CYP function remaining [4]	Kobs [4]
[2H]C([2H])([2H])n1c(=O)n([C@@H]2CC[C@@H](NC(=O)OC)C2)c2c3c(-c4ccc5c(c4)COC5(C)C)c(-c4ccc(C(=O)N(C)C)cc4)[nH]c3ncc21 [Example 30, methyl ((1R,3R)-3-(8-(1,1-dimethyl-1,3-dihydroisobenzofuran-5-yl)-7-(4-(dimethylcarbamoyl)phenyl)-3-(methyl-d3)-2-oxo-3,6-dihydroimidazo[4,5-d]pyrrolo[2,3-b]pyridin-1(2H)-yl)cyclopentyl)carbamate]	0.25 to 1.25	***** (selectivity of >5000-fold to ≤12500-fold)	≤ 500	⋄⋄ (>0.005 to ≤0.02)	≤ 0.01	–	–
[2H]C([2H])([2H])N(Cc1ccc(-c2[nH]c3ncc4c(c3c2-c2ccc3c(c2)COC3(C)C)n([C@@H]2CC[C@@H](NC(=O)OC)C2)c(=O)n4C([2H])([2H])[2H])cc1)C([2H])([2H])[2H] [Example 29, Methyl ((1R,3R)-3-(7-(4-((bis(methyl-d3)amino)methyl)phenyl)-8-(1,1-dimethyl-1,3-dihydroisobenzofuran-5-yl)-3-(methyl-d3)-2-oxo-3,6-dihydroimidazo[4,5-d]pyrrolo[2,3-b]pyridin-1(2H)-yl)cyclopentyl)carbamate]	1.25 to 2.5	****** (selectivity of >12500-fold)	≤ 500	⋄⋄ (>0.005 to ≤0.02)	≤ 0.01	–	–
[2H]C([2H])([2H])n1c(=O)n([C@@H]2CC[C@@H](NC(=O)OC)C2)c2c3c(-c4ccc5c(cnn5C(C)C)c4)c(-c4ccc(CN(C)C)cc4)[nH]c3ncc21 [Example 26, Methyl ((1R,3R)-3-(7-(4-((dimethylamino)methyl)phenyl)-8-(1-isopropyl-1H-indazol-5-yl)-3-(methyl-d3)-2-oxo-3,6-dihydroimidazo[4,5-d]pyrrolo[2,3-b]pyridin-1(2H)-yl)cyclopentyl)carbamate]	1.25 to 2.5	***** (selectivity of >5000-fold to ≤12500-fold)	≤ 500	⋄ (≤0.005)	≤ 0.01	–	–
[2H]C([2H])([2H])N(Cc1ccc(-c2[nH]c3ncc4c(c3c2-c2ccc3c(c2)CC(C)(C)O3)n([C@@H]2CC[C@@H](NC(=O)OC)C2)c(=O)n4C([2H])([2H])[2H])cc1)C([2H])([2H])[2H] [Example 25, Methyl ((1R,3R)-3-(7-(4-((bis(methyl-d3)amino)methyl)phenyl)-8-(2,2-dimethyl-2,3-dihydrobenzofuran-5-yl)-3-(methyl-d3)-2-oxo-3,6-dihydroimidazo[4,5-d]pyrrolo[2,3-b]pyridin-1(2H)-yl)cyclopentyl)carbamate]	0.25 to 1.25	**** (selectivity of >1750-fold to ≤5000-fold)	500 to 1500	⋄ (≤0.005)	≤ 0.01	–	–
COC(=O)N[C@@H]1CC[C@@H](n2c(=O)n(C)c3cnc4[nH]c(-c5ccc(CN(C)C)cc5)c(-c5ccc(F)cc5)c4c32)C1 [Example 28, Methyl ((1R,3R)-3-(7-(4-((dimethylamino)methyl)phenyl)-8-(4-fluorophenyl)-3-methyl-2-oxo-3,6-dihydroimidazo[4,5-d]pyrrolo[2,3-b]pyridin-1(2H)-yl)cyclopentyl)carbamate]	> 2.5	**** (selectivity of >1750-fold to ≤5000-fold)	500 to 1500	⋄ (≤0.005)	≤ 0.01	–	–
COc1nn(C)cc1-c1[nH]c2ncc3c(c2c1-c1ccc2c(cnn2C)c1)n(C1CCOCC1)c(=O)n3C [Comparative Example A, reference compound]	–	** (selectivity of >500-fold to ≤1500-fold)	–	⋄⋄⋄⋄ (≥0.04)	≤ 0.01	about 30%	around 0.04
[2H]C([2H])([2H])n1ncc2cc(-c3c(-c4cn(C)nc4OC)[nH]c4ncc5c(c34)n(C3CCOCC3)c(=O)n5C)ccc21 [Comparative Example B, reference compound]	> 2.5	** (selectivity of >500-fold to ≤1500-fold)	> 1500	⋄⋄⋄⋄ (≥0.04)	≤ 0.01	about 30%	around 0.04
[2H]C([2H])([2H])N(Cc1ccc(-c2[nH]c3ncc4c(c3c2-c2ccc(OCCOC)cc2)n([C@@H]2CC[C@@H](NC(=O)OC)C2)c(=O)n4C([2H])([2H])[2H])cc1)C([2H])([2H])[2H] [Example 27, Methyl ((1R,3R)-3-(7-(4-((bis(methyl-d3)amino)methyl)phenyl)-8-(4-(2-methoxyethoxy)phenyl)-3-(methyl-d3)-2-oxo-3,6-dihydroimidazo[4,5-d]pyrrolo[2,3-b]pyridin-1(2H)-yl)cyclopentyl)carbamate]	1.25 to 2.5	***** (selectivity of >5000-fold to ≤12500-fold)	500 to 1500	⋄ (≤0.005)	≤ 0.01	–	–
